What was measured:
[1] = biological target: T1, JAK3: Recombinant human kinase domain (Homo sapiens, UniProt P52333); assay: Determination of IC50 of Janus Kinase (JAK) inhibition, radioactive end-point 33P-ATP assay, JAK3; type: biochemical; settings: ATP 1.5 uM, peptide 50 uM, 20 minutes, read-out: JAK3-INHIB-DR/v1~NO ADDITIVE~Enzyme_Conc = 100
T1 construct: JAK3: Recombinant human kinase domain from Millipore (Cat #14-629) or prepared; purchased Millipore 14-629

[2] = biological target: T2, recombinant human SYK360-635 (Homo sapiens, UniProt P43405); assay: Determination of IC50 of Spleen Tyrosine Kinase (SYK) inhibition, 33P ATP filtration assay; type: biochemical; settings: SYK aa 360-635 0.5 nM; ATP 20 μM, peptide 5 μM, 0.1% BSA; read-out: SYK_ENZYME_FILTRATION/v1, BSA
T2 construct: made in house

T1 sequence (P52333 822-1111 limits assumed): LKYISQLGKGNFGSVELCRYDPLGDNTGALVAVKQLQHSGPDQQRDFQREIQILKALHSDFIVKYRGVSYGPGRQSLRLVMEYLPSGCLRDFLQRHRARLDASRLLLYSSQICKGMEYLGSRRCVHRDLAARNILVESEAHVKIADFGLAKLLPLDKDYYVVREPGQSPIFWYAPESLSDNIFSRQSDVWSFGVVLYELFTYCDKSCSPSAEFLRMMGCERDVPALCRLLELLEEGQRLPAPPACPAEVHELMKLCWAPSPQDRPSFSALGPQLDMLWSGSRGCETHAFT

SMILES	IC50 [1]	IC50 [2]
CC(Cc1ccccc1)NC(=O)c1c[nH]c2ncc(-c3nn(C)c4cc(Cl)ccc34)nc12 (centres unmarked) [Example I-150, 2-(6-Chloro-1-methyl-1H-indazol-3-yl)-5H-pyrrolo[2,3-b]pyrazine-7-carboxylic acid (1-methyl-2-phenyl-ethyl)-amide]	22.5 nM	1540 nM
CC(C)NC(=O)c1c[nH]c2ncc(-c3nn(C4CNC4)c4cc(F)ccc34)nc12 [Example I-104, 2-(1-Azetidin-3-yl-6-fluoro-1H-indazol-3-yl)-5H-pyrrolo[2,3-b]pyrazine-7-carboxylic acid isopropylamide]	5.68 nM	41 nM
CN(C)CCn1nc(-c2cnc3[nH]cc(C(=O)NC(C)(C)C)c3n2)c2ccc(F)cc21 [Example I-313, 2-[1-(2-Dimethylamino-ethyl)-6-fluoro-1H-indazol-3-yl]-5H-pyrrolo[2,3-b]pyrazine-7-carboxylic acid tert-butylamide]	157 nM	46 nM
COC[C@H](CCS(C)(=O)=O)NC(=O)c1c[nH]c2ncc(-c3nn(C)c4cc(F)ccc34)nc12 [Example I-192, 2-(6-Fluoro-1-methyl-1H-indazol-3-yl)-5H-pyrrolo[2,3-b]pyrazine-7-carboxylic acid ((S)-3-methanesulfonyl-1-methoxymethyl-propyl)-amide]	1.88 nM	135 nM
CC(CC(C)(C)O)NC(=O)c1c[nH]c2ncc(-c3nn(C)c4cc(F)ccc34)nc12 (centres unmarked) [Example I-183, 2-(6-Fluoro-1-methyl-1H-indazol-3-yl)-5H-pyrrolo[2,3-b]pyrazine-7-carboxylic acid (3-hydroxy-1,3-dimethyl-butyl)-amide]	80 nM	161 nM
C[C@H](NC(=O)c1c[nH]c2ncc(-c3nn(C)c4cc(Cl)ccc34)nc12)C1CC1 [Example I-140, 2-(6-Chloro-1-methyl-1H-indazol-3-yl)-5H-pyrrolo[2,3-b]pyrazine-7-carboxylic acid ((S)-1-cyclopropyl-ethyl)-amide]	1.11 nM	9.15 nM
COC[C@H](CC(C)C)NC(=O)c1c[nH]c2ncc(-c3nn(C)c4cc(F)ccc34)nc12 [Example I-179, 2-(6-Fluoro-1-methyl-1H-indazol-3-yl)-5H-pyrrolo[2,3-b]pyrazine-7-carboxylic acid ((S)-1-methoxymethyl-3-methyl-butyl)-amide]	5.91 nM	149 nM
Cn1nc(-c2cnc3[nH]cc(C(=O)N[C@H]4CC[C@H](O)CC4)c3n2)c2ccc(Cl)cc21 [Example I-144, 2-(6-Chloro-1-methyl-1H-indazol-3-yl)-5H-pyrrolo[2,3-b]pyrazine-7-carboxylic acid (trans-4-hydroxy-cyclohexyl)-amide]	13.1 nM	37.1 nM
Cn1nc(-c2cnc3[nH]cc(C(=O)NC(C)(C)C#N)c3n2)c2ccc(F)cc21 [Example I-377, 2-(6-Fluoro-1-methyl-1H-indazol-3-yl)-5H-pyrrolo[2,3-b]pyrazine-7-carboxylic acid (cyano-dimethyl-methyl)-amide]	5.4 nM	4.55 nM
Cn1nc(-c2cnc3[nH]cc(C(=O)N[C@@H]4CCC[C@H](O)C4)c3n2)c2ccc(Cl)cc21 (relative stereo) [Example I-149, 2-(6-Chloro-1-methyl-1H-indazol-3-yl)-5H-pyrrolo[2,3-b]pyrazine-7-carboxylic acid (cis-3-hydroxy-cyclohexyl)-amide]	10.3 nM	52 nM
CCCC(C)NC(=O)c1c[nH]c2ncc(-c3nn(C)c4cc(F)ccc34)nc12 (centres unmarked) [Example I-184, 2-(6-Fluoro-1-methyl-1H-indazol-3-yl)-5H-pyrrolo[2,3-b]pyrazine-7-carboxylic acid (1-methyl-butyl)-amide]	4.96 nM	37.2 nM

Next, values leading:

IC50 [1]	IC50 [2]	SMILES
0.745 nM	109 nM	C[C@@H](NC(=O)c1c[nH]c2ncc(-c3nn(C)c4c(F)c(F)ccc34)nc12)C(=O)N1CC(C#N)C1 [Example I-86, 2-(6,7-Difluoro-1-methyl-1H-indazol-3-yl)-5H-pyrrolo[2,3-b]pyrazine-7-carboxylic acid [(R)-2-(3-cyano-azetidin-1-yl)-1-methyl-2-oxo-ethyl]-amide]
78.7 nM	13.9 nM	CC(C)(C)NC(=O)c1c[nH]c2ncc(-c3nn(CCCN4CC(F)(F)C4)c4ccc(OC(F)F)cc34)nc12 [Example I-296, 2-{1-[3-(3,3-Difluoro-azetidin-1-yl)-propyl]-5-difluoromethoxy-1H-indazol-3-yl}-5H-pyrrolo[2,3-b]pyrazine-7-carboxylic acid tert-butylamide]
17.4 nM	1.9 nM	Cn1nc(-c2cnc3[nH]cc(C(=O)N[C@H]4CC[C@@H](N)CC4)c3n2)c2ccc(Cl)cc21 [Example I-145, 2-(6-Chloro-1-methyl-1H-indazol-3-yl)-5H-pyrrolo[2,3-b]pyrazine-7-carboxylic acid (cis-4-amino-cyclohexyl)-amide]
58.3 nM	3.32 nM	COc1ccc2c(-c3cnc4[nH]cc(C(=O)NC(C)(C)CO)c4n3)nn(C)c2c1 [Example I-365, 2-(6-Methoxy-1-methyl-1H-indazol-3-yl)-5H-pyrrolo[2,3-b]pyrazine-7-carboxylic acid (2-hydroxy-1,1-dimethyl-ethyl)-amide]
22.9 nM	3.38 nM	CCC(C)(C)NC(=O)c1c[nH]c2ncc(-c3nn(C)c4cc(F)ccc34)nc12 [Example I-375, 2-(6-Fluoro-1-methyl-1H-indazol-3-yl)-5H-pyrrolo[2,3-b]pyrazine-7-carboxylic acid (1,1-dimethyl-propyl)-amide]
> 1000 nM	8930 nM	CC(Cc1ccccn1)NC(=O)c1c[nH]c2ncc(-c3nn(CCN4CCCC4)c4cc(F)ccc34)nc12 (centres unmarked) [Example I-250, 2-[6-Fluoro-1-(2-pyrrolidin-1-yl-ethyl)-1H-indazol-3-yl]-5H-pyrrolo[2,3-b]pyrazine-7-carboxylic acid (1-methyl-2-pyridin-2-yl-ethyl)-amide]
14 nM	77.7 nM	Cc1cc(C(C)NC(=O)c2c[nH]c3ncc(-c4nn(C)c5cc(F)ccc45)nc23)no1 (centres unmarked) [Example I-54, 2-(6-Fluoro-1-methyl-1H-indazol-3-yl)-5H-pyrrolo[2,3-b]pyrazine-7-carboxylic acid [1-(5-methyl-isoxazol-3-yl)-ethyl]-amide]
263 nM	197 nM	CC(NC(=O)c1c[nH]c2ncc(-c3nn(C)c4cc(F)ccc34)nc12)C(O)C1CCOCC1 (single isomer, unassigned) [Example I-203, 2-(6-Fluoro-1-methyl-1H-indazol-3-yl)-5H-pyrrolo[2,3-b]pyrazine-7-carboxylic acid [cis-2-hydroxy-1-methyl-2-(tetrahydro-pyran-4-yl)-ethyl]-amide]
19.7 nM	9.95 nM	CC(NC(=O)c1c[nH]c2ncc(-c3nn(C)c4cc(F)ccc34)nc12)[C@H]1C[C@@H](O)C1 (stereo partly drawn) [Example I-73, 2-(6-Fluoro-1-methyl-1H-indazol-3-yl)-5H-pyrrolo[2,3-b]pyrazine-7-carboxylic acid [1-(cis-3-hydroxy-cyclobutyl)-ethyl]-amide]
9.44 nM	17.6 nM	CC(C)CNC(=O)c1c[nH]c2ncc(-c3nn(C)c4cc(F)ccc34)nc12 [Example I-116, 2-(6-Fluoro-1-methyl-1H-indazol-3-yl)-5H-pyrrolo[2,3-b]pyrazine-7-carboxylic acid isobutyl-amide]
124 nM	372 nM	C[C@H](CN1CC[C@@H](F)C1)NC(=O)c1c[nH]c2ncc(-c3nn(C)c4cc(Cl)ccc34)nc12 [Example I-121, 2-(6-Chloro-1-methyl-1H-indazol-3-yl)-5H-pyrrolo[2,3-b]pyrazine-7-carboxylic acid [(R)-2-((R)-3-fluoro-pyrrolidin-1-yl)-1-methyl-ethyl]-amide]
20.6 nM	9.2 nM	CC(NC(=O)c1c[nH]c2ncc(-c3nn(C)c4cc(F)ccc34)nc12)[C@H]1C[C@H](O)C1 (stereo partly drawn) [Example I-75, 2-(6-Fluoro-1-methyl-1H-indazol-3-yl)-5H-pyrrolo[2,3-b]pyrazine-7-carboxylic acid [1-(trans-3-hydroxy-cyclobutyl)-ethyl]-amide]
170 nM	1990 nM	CC(NC(=O)c1c[nH]c2ncc(-c3nn(CCN(C)C)c4cc(F)ccc34)nc12)c1ccncc1 (centres unmarked) [Example I-249, 2-[1-(2-Dimethylamino-ethyl)-6-fluoro-1H-indazol-3-yl]-5H-pyrrolo[2,3-b]pyrazine-7-carboxylic acid (1-pyridin-4-yl-ethyl)-amide]
8.87 nM	19.4 nM	CC(NC(=O)c1c[nH]c2ncc(-c3nn(C)c4cc(F)ccc34)nc12)c1cocn1 (centres unmarked) [Example I-52, 2-(6-Fluoro-1-methyl-1H-indazol-3-yl)-5H-pyrrolo[2,3-b]pyrazine-7-carboxylic acid (1-oxazol-4-yl-ethyl)-amide]
1.14 nM	17 nM	COC[C@H](C)NC(=O)c1c[nH]c2ncc(-c3nn(C)c4cc(Cl)ccc34)nc12 [Example I-165, 2-(6-Chloro-1-methyl-1H-indazol-3-yl)-5H-pyrrolo[2,3-b]pyrazine-7-carboxylic acid ((S)-2-methoxy-1-methyl-ethyl)-amide]
5.83 nM	66.5 nM	COC[C@@H](C)NC(=O)c1c[nH]c2ncc(-c3nn(C)c4cc(Cl)ccc34)nc12 [Example I-159, 2-(6-Chloro-1-methyl-1H-indazol-3-yl)-5H-pyrrolo[2,3-b]pyrazine-7-carboxylic acid ((R)-2-methoxy-1-methyl-ethyl)-amide]
3.97 nM	21.7 nM	Cn1nc(-c2cnc3[nH]cc(C(=O)NC4CCCOC4)c3n2)c2ccc(Cl)cc21 (centres unmarked) [Example I-111, 2-(6-Chloro-1-methyl-1H-indazol-3-yl)-5H-pyrrolo[2,3-b]pyrazine-7-carboxylic acid (tetrahydro-pyran-3-yl)-amide]
